Results from patent publication US8969333B2, “Therapeutic compositions and methods” (The Penn State Research Foundation, priority 2010, dated 2015).

Legend:
[1] = test system: U2OS human osteosarcoma cells; assay: MTT assay of U2OS cancer cell growth inhibition; type: cell-based
Description: MIT assays are conducted to evaluate activity to inhibit cancer cell growth. U2OS human osteosarcoma cells were treated with individual compounds at different concentrations for 72 hr in 24-well plates. MIT reagent was added to a final concentration of 0.5 mg/ml and further incubated for 4 hr. The yellow-colored MTT was reduced to insoluble purple-colored Formazan in living cells. Culture medium was removed and DMSO was added to dissolve Formazan into solution. The absorbance of the solution was then measured at 570 nm using a Thermo BioMate™ 3 spectrophotometer. Results are shown in FIG. 1 and average and standard deviations are shown (n>=3).
Cells were treated with individual compounds at different concentrations for 72 hr in 24-well plates. MTT reagent was added to a final concentration of 0.5 mg/ml and further incubated for 4 hr. The yellow-colored MTT was reduced to insoluble purple-colored Formazan in living cells. Culture medium was removed and DMSO was added to dissolve Formazan into solution. The absorbance of the solution was then measured at 570 nm using a Thermo BioMate™ 3 spectrophotometer.

[2] = molecular target: PAD4 (Homo sapiens (Human), UniProt Q9UM07); assay: PAD4 enzyme activity colorimetric assay (citrullination of BAEE); type: biochemical; conditions: 0.2 μg PAD4, 5 mM BAEE, 37° C.
PAD4, sequence (Q9UM07 whole entry, species assumed): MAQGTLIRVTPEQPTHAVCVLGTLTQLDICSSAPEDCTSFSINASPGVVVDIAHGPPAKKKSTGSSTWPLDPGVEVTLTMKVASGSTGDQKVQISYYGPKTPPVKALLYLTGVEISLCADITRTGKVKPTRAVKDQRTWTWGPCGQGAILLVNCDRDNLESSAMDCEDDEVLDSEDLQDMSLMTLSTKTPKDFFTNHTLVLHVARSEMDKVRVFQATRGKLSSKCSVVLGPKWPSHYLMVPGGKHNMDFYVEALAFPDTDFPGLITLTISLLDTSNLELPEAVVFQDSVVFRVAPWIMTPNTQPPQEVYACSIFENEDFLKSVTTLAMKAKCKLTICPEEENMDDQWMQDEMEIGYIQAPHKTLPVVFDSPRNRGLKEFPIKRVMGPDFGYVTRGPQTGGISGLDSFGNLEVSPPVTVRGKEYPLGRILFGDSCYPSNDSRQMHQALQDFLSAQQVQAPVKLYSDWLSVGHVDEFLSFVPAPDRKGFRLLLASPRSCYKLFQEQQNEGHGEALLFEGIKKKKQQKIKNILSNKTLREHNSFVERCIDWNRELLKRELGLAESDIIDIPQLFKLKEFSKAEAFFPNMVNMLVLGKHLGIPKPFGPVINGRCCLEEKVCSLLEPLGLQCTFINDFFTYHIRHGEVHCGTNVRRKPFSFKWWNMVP
Description: PAD4 enzyme activity assays are conducted to determine PAD4 inhibitory activity. PAD4 inhibition efficacy of the inhibitors is determined using a colorimetric assay for citrullination production.
The inhibition efficacy of PAD4 inhibitors were determined by colorimetric measurement of citrulline generated by PAD4 catalyzed citrullination of BAEE. 0.2 μg PAD4 was pre-incubated with inhibitors in 100 μl buffer containing 50 mM Tris-HCl pH7.6, 5 mM CaCl2, 2 mM DTT for 0.5 hr at 37° C. The reaction was started by the addition of BAEE to 5 mM and halted 1.5 hr later with the addition of 25 μl 5 M HClO4. Then the samples were briefly centrifuged at 12000 rpm for 2 min at 4° C. and the supernatant (120 μl) were assayed for citrulline by mixing with 120 μl reagent A (0.5% w/v diacetyl monoxime and 15% w/v NaCl in water) and 240 μl reagent B (1% w/v antipyrine, 0.15% w/v ferric chloride, 25% v/v H2SO4 and 25% v/v H3PO4). The mixtures were boiled for 15 min and cooled to room temperature in ice bath. The absorbance of the reagent mixtures at 464 nm was measured by Thermo BioMate™ 3 spectrophotometer. Efficacies of inhibitors are indicated as relative PAD4 citrullination activity by normalizing the PAD4 activity without inhibitor treatment to 100%.

[3] = Three-month YW3-56 treatment of nude mice: body and vital organ size; type: in vivo, mouse; conditions: 10 mg/kg, three months
Description: FIGS. 11a and 11b show results of the effect of long term YW3-56 treatment in mice. A pair of nude mice is mock injected or injected with YW3-56 for three months. RT-qPCR analyses of p53 and its target gene mRNA levels in control and YW3-56 treated mice. […] However, these changes are at low levels and no clear change in liver weight and morphology is observed.
A three-month YW3-56 treatment including daily injection of YW3-56 at 10 mg/kg body weight in a pair of nude mice is performed and the size of mouse body and vital organs is not altered after YW3-56 treatment as shown in FIG. 13.

[4] = test system: Sesn2 promoter (+733 position); assay: ChIP analysis at the sestrin2 promoter in U2OS cells; type: cell-based, human; conditions: 8 μM, 8 hr
Description: Chromatin immunoprecipitation experiments are performed to test if p53 and histone Arg modifications directly regulate Sesn2 gene promoter. ChIP experiments were carried out essentially as described in Li, P. et al., Mol. Cell Biol., 28 (15), 4745-4758 (2008). Antibodies used in ChIP were: anti-p53 (Sigma), anti-PAD4, anti-H3Cit (Abeam), anti-H3R17Me (Abeam). Multiple pairs of primers spanning different regions of Sesn2 are designed to identify a p53 binding site at the Sesn2 gene. p53 binding is relatively […] at the +733 position in untreated U2OS cells, while its binding to this site is dramatically elevated after DNA damage induced by UV irradiation. After 8 hr YW3-56 treatment, p53 binding at the +733 position of Sesn2 is increased >4-fold with a concomitant increase of histone H3 Arg17 methylation (H3R17Me) (FIG. 14G, upper panel). In contrast, after YW3-56 treatment, a decrease in PAD4 binding and histone H3 citrullination (H3Cit) at the +733 position is consistently detected. ChIP results support a model in which p53 associates with while PAD4 dissociates from the Sesn2 promoter after YW3-56 treatment, allowing a decrease in H3Cit and an increase in H3R17Me to facilitate Sesn2 expression.
FIG. 14G, ChIP analyses of p53 and PAD4 association as well as histone H3R17Me and H3Cit modifications at the sestrin2 promoter before and after YW3-56 treatment at 8 μM for 8 hr. […]

[5] = test system: U2OS cells; assay: Phase contrast microscopy of U2OS cell growth and morphology; type: cell-based, human; conditions: 0-16 μM, 24 hours
Description: Cell growth and morphology changes of cells treated with compounds of the present invention are analyzed using phase contrast microscopy.
A VistaVision invert microscope (VWR Inc.) equipped with a Spot Insight digital camera (NDS, Inc.) and a 10× phase contrast lens were used to analyze cell growth and morphology in phase contrast microscopy analyses.
In this example, U2OS are treated with […] YW3-56 for 24 hours.

[6] = test system: LC3; assay: Western blot of LC3 cleavage (autophagy); type: cell-based, human; conditions: U2OS cells, concentration-dependent
Description: YW3-56 induces cell death by autophagy, a cell death process in which cellular proteins and organelles are degraded by fusion with lysosomes. Cleavage of LC3-I to generate a fast migrating isoform LC3-II is a characteristic autophagy event. LC3 cleavage is induced after YW3-56 treatment in a concentration-dependent manner as shown in the Western blot in FIG. 6. Western blot and immunostaining was performed essentially as described in Li, P. et al., Oncogene 29 (21), 3153-3162 (2010). Antibodies used in Western blot were anti-p53 (Sigma), anti-PAD4, anti-p21 (Sigma), anti-PUMA (Calbiochem), anti-SESN2 (Abeam), anti-p70S6K (Cell Signaling), anti-p70S6K-[…] (Cell Signaling), anti-LC3 (Cell Signaling) and anti-β-actin (Sigma) at appropriate dilutions. Anti-LC3B antibody (Cell Signaling) was used for immunostaining. DNA was stained by the DNA dye Hoechst.

For CN(C)c1ccc2cc(C(=O)N[C@@H](CCCNC(=N)CCl)C(=O)NCc3ccccc3)ccc2c1 [YW3-56], the “U2OS cell growth in MTT assay” value ([1]; 20 μM, 3 days) was “abolished cell growth”, the IC50 ([1]; Homo sapiens, read-out: 50% inhibition Cell growth, U2OS cells, MTT, 72 hr) was roughly 2500 nM and the IC50 [2] was 1000 to 5000 nM. For the same compound, the “size of mouse body and vital organs” value [3] was “not altered”, the “PAD4 binding and histone H3 citrullination (H3Cit) at the +733 position” value [4] was “decrease” and the “p53 binding at the +733 position of Sesn2, increase” value [4] was greater than 4 fold. For the same compound, the “U2OS cell density in culture” value [5] was “decreases U2OS cell density” and the LC3 cleavage [6] was “induced”.
